Reference: PubChem BioAssay AID2060893 (Molecular Pharmacology Branch, DTP, NCI, 2025)
Values joined by “and” are separate entries in the source; they are usually repeats but may differ in a detail not shown here. Identical values can stand only once.

Tested on: K86415-001-R-J1-PDC complex spheroids, viability
Test: Anticancer human tumor K86415-001-R-J1-PDC patient-derived lung adenocarcinoma cell line growth inhibition [RAS]
Conditions: for viability, T/C: stronger effect = lower value
Outline: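 Tumour cells grown as complex spheroids with HUVEC endothelial cells and mesenchymal stem cells, treated with RAS pathway inhibitor combinations. Each agent spans half-log steps from near clinical Cmax, or 10 microM where Cmax is unknown.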

[1] = curve of first compound, second compound 0.000949 µM
[2] = curve of first compound, second compound 0.003 µM
[3] = curve of first compound, second compound 0.00949 µM
[4] = curve of first compound, second compound 0.03 µM
[5] = curve of first compound, second compound 0.0949 µM
[6] = curve of first compound, second compound 0.3 µM
[7] = second compound 0.000949 µM, first compound 0.0316 µM
[8] = second compound 0.000949 µM, first compound 0.1 µM
[9] = second compound 0.000949 µM, first compound 0.316 µM
[10] = second compound 0.000949 µM, first compound 1 µM
[11] = second compound 0.003 µM, first compound 0.0316 µM
[12] = second compound 0.003 µM, first compound 0.1 µM
[13] = second compound 0.003 µM, first compound 0.316 µM
[14] = second compound 0.003 µM, first compound 1 µM
[15] = second compound 0.00949 µM, first compound 0.0316 µM
[16] = second compound 0.00949 µM, first compound 0.1 µM
[17] = second compound 0.00949 µM, first compound 0.316 µM
[18] = second compound 0.00949 µM, first compound 1 µM
[19] = second compound 0.03 µM, first compound 0.0316 µM
[20] = second compound 0.03 µM, first compound 0.1 µM
[21] = second compound 0.03 µM, first compound 0.316 µM
[22] = second compound 0.03 µM, first compound 1 µM
[23] = second compound 0.0949 µM, first compound 0.0316 µM
[24] = second compound 0.0949 µM, first compound 0.1 µM
[25] = second compound 0.0949 µM, first compound 0.316 µM
[26] = second compound 0.0949 µM, first compound 1 µM
[27] = second compound 0.3 µM, first compound 0.0316 µM
[28] = second compound 0.3 µM, first compound 0.1 µM
[29] = second compound 0.3 µM, first compound 0.316 µM
[30] = second compound 0.3 µM, first compound 1 µM
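Also: spheroids exposed to agents for seven days before readout.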

For C=CC(=O)N1CCN(c2nc(OCC3CCCN3C)nc3c(F)c(-c4nc(N)cc(C)c4C(F)(F)F)c(Cl)cc23)C(C)C1 (stereo unspecified) + CCn1c(-c2cc(N3CCN(C)CC3)cnc2C(C)OC)c2c3cc(ccc31)-c1csc(n1)CC(NC(=O)C1CC1C)C(=O)N1CCCC(N1)C(=O)OCC(C)(C)C2, the IC50 [1] was under 3.16 nM, the IC50 [2] was under 3.16 nM and the IC50 [3] was under 3.16 nM. For the same molecule, the IC50 [4] was under 3.16 nM, the IC50 [5] was under 3.16 nM and the IC50 [6] was under 3.16 nM. The viability, T/C (second compound 0.000949 µM, first compound 0.00316 µM) was 14%, the viability, T/C (second compound 0.000949 µM, first compound 0.01 µM) was 11.3% and the viability, T/C [7] was 7.59%. For the same molecule, the viability, T/C [8] was 8%, the viability, T/C [9] was 8.62% and the viability, T/C [10] was 8.31%. It also gave a viability, T/C (second compound 0.003 µM, first compound 0.00316 µM) of 9.34%, a viability, T/C (second compound 0.003 µM, first compound 0.01 µM) of 6.02% and a viability, T/C [11] of 5.36%. It also gave a viability, T/C [12] of 5.95%, a viability, T/C [13] of 6.92% and a viability, T/C [14] of 5.35%. The viability, T/C (second compound 0.00949 µM, first compound 0.00316 µM) was 4.68%, the viability, T/C (second compound 0.00949 µM, first compound 0.01 µM) was 4.68% and the viability, T/C [15] was 4.36%. The viability, T/C [16] was 4.25%, the viability, T/C [17] was 4.08% and the viability, T/C [18] was 3.96%. It also gave a viability, T/C (second compound 0.03 µM, first compound 0.00316 µM) of 3.4%, a viability, T/C (second compound 0.03 µM, first compound 0.01 µM) of 3.36% and a viability, T/C [19] of 2.8%. The viability, T/C [20] was 2.79%, the viability, T/C [21] was 3.36% and the viability, T/C [22] was 3.36%. The viability, T/C (second compound 0.0949 µM, first compound 0.00316 µM) was 2.57%, the viability, T/C (second compound 0.0949 µM, first compound 0.01 µM) was 2.3% and the viability, T/C [23] was 3.16%. For the same molecule, the viability, T/C [24] was 2.37%, the viability, T/C [25] was 2.22% and the viability, T/C [26] was 3.4%. It also gave a viability, T/C (second compound 0.3 µM, first compound 0.00316 µM) of 2.23%, a viability, T/C (second compound 0.3 µM, first compound 0.01 µM) of 2.68% and a viability, T/C [27] of 2.5%. The viability, T/C [28] was 2.49%, the viability, T/C [29] was 3.18% and the viability, T/C [30] was 2.66%.

In the case of CCc1c2c(nc3ccc(O)cc13)-c1cc3c(c(=O)n1C2)COC(=O)[C@]3(O)CC, the viability, T/C (compound 0.000949 µM) is reported as 102% (2×) and 97.3% and 88.2%, the viability, T/C (compound 0.003 µM) is reported as 38.8% [middle of 4 runs] and the viability, T/C (compound 0.00949 µM) is reported as 23.2% [middle of 4 runs]. The viability, T/C (compound 0.03 µM) was 17.6% [middle of 4 runs], the viability, T/C (compound 0.0949 µM) was 13.3% [middle of 4 runs] and the viability, T/C (compound 0.3 µM) was 5.27% [middle of 4 runs]. For the same molecule, the IC50 (curve of compound) was 2.52 nM [middle of 4 runs].

Work on C[C@@H](NC(=O)c1ncnc(N)c1Cl)c1ncc(C(=O)Nc2cc(C(F)(F)F)c(Cl)cn2)s1 + CCn1c(-c2cc(N3CCN(C)CC3)cnc2C(C)OC)c2c3cc(ccc31)-c1csc(n1)CC(NC(=O)C1CC1C)C(=O)N1CCCC(N1)C(=O)OCC(C)(C)C2 yielded an IC50 [1] of 4280 nM, an IC50 [2] of under 31.6 nM and an IC50 [3] of under 31.6 nM. For the same molecule, the IC50 [4] was under 31.6 nM, the IC50 [5] was under 31.6 nM and the IC50 [6] was under 31.6 nM. It also gave a viability, T/C [7] of 58.2%, a viability, T/C [8] of 62.2% and a viability, T/C [9] of 53.7%. It also gave a viability, T/C [10] of 62.2%, a viability, T/C (second compound 0.000949 µM, first compound 3.16 µM) of 57.1% and a viability, T/C (second compound 0.000949 µM, first compound 10 µM) of 29.1%. The viability, T/C [11] was 34.8%, the viability, T/C [12] was 27.6% and the viability, T/C [13] was 32.1%. The viability, T/C [14] was 38.1%, the viability, T/C (second compound 0.003 µM, first compound 3.16 µM) was 33.4% and the viability, T/C (second compound 0.003 µM, first compound 10 µM) was 21.7%. The viability, T/C [15] was 12.9%, the viability, T/C [16] was 11.8% and the viability, T/C [17] was 11.9%. For the same molecule, the viability, T/C [18] was 16.6%, the viability, T/C (second compound 0.00949 µM, first compound 3.16 µM) was 15.4% and the viability, T/C (second compound 0.00949 µM, first compound 10 µM) was 11.6%. It also gave a viability, T/C [19] of 6.75%, a viability, T/C [20] of 8.74% and a viability, T/C [21] of 8.31%. It also gave a viability, T/C [22] of 8.07%, a viability, T/C (second compound 0.03 µM, first compound 3.16 µM) of 8.51% and a viability, T/C (second compound 0.03 µM, first compound 10 µM) of 7.57%. For the same molecule, the viability, T/C [23] was 5.52%, the viability, T/C [24] was 4.87% and the viability, T/C [25] was 4.23%. It also gave a viability, T/C [26] of 4.04%, a viability, T/C (second compound 0.0949 µM, first compound 3.16 µM) of 4.24% and a viability, T/C (second compound 0.0949 µM, first compound 10 µM) of 4.39%. It also gave a viability, T/C [27] of 3.5%, a viability, T/C [28] of 3.03% and a viability, T/C [29] of 4.17%. For the same molecule, the viability, T/C [30] was 3.4%, the viability, T/C (second compound 0.3 µM, first compound 3.16 µM) was 4.53% and the viability, T/C (second compound 0.3 µM, first compound 10 µM) was 4.26%.
